These results are taken from BindingDB's records for doi:10.1021/jm020994z (Universit&#224, 2003).

Assay [1] can be described thus: Binding affinity of compound was tested for Sigma receptor type 1.
Assay [2] concerns the target Sigma intracellular receptor 2 (Rattus norvegicus). The assay can be described thus: Binding affinity of compound was tested for Sigma receptor type 2.

pKi: −log10 of the molar value.

Consider `O=C(CCCCCN1CCN(c2noc3ccccc23)CC1)c1ccccc1O` [6-(4-Benzo[d]isoxazol-3-yl-piperazin-1-yl)-1-(2-hydroxy-phenyl)-hexan-1-one], for which the pKi in assay [1] was 7.21.

Consider `COc1ccccc1C(=O)CCCCCN1CCN(c2noc3ccccc23)CC1` [6-(4-Benzo[d]isoxazol-3-yl-piperazin-1-yl)-1-(2-methoxy-phenyl)-hexan-1-one], for which the pKi in assay [1] is 5.37; in assay [2] it was 6.83.

The term pKi denotes −log10 of the Ki, conventionally taken in molar units. Lower therefore signals a high Ki.
